The results in this text go back to patent publication US3992371A, “Penicillins substituted with heterocyclic and substituted phenyl groups” (Sumitomo Chemical Company, Limited, priority 1973, dated 1976).

What all share (assay): Minimal inhibitory concentration, agar dilution method
Common to all, as to assay type: cell-based
In general terms: Agar dilution tests growth on a series of plates holding different concentrations.

Test [1] has as its system Klebsiella pneumoniae PCI602. An excerpt: (§1) When determined according to the agar dilution method, the penicillins (I) afford the minimal inhibitory concentrations against test microorganisms as shown in Table 2.
A further test has as its system Escherichia coli NIHJ.
Description: as §1

For test [2], the system named is Staphylococcus aureus 209P.
Description: as §1

In test [3] the test system is Pseudomonas aeruginosa 104.
Description: as §1

A further test concerns Proteus miravilis GN2425.
The next test relates to Proteus vulgaris HV19.

The structures appear in SMILES notation. ≈ marks a conversion by molar mass, not a printed value. Structures can show the parent of a compound that is named as a salt.

One may read the MIC as the smallest concentration in the dilution series that meets the test's criterion for growth inhibition.

For `CC1(C)S[C@@H]2[C@H](NC(=O)C(C(=O)O)c3ccccc3)C(=O)N2[C@H]1C(=O)O` (stereo partly drawn) [Carbenicillin, reference compound], the MIC in test [1] came out at 200 µg/mL (≈ 529 µM).
Consider `CC1(C)S[C@@H]2[C@H](NC(=O)[C@H](NC(=O)c3cnc4cccnc4c3O)c3cccc(N)c3)C(=O)N2[C@H]1C(=O)O` [Example 1, D-α-(4-hydroxy-1,5-naphthyridine-3-carboxamido)-m-aminobenzylpenicillin sodium salt], for which the MIC was determined as 0.78 µg/mL in the test with Escherichia coli NIHJ; 1.56 µg/mL in test [2]; 6.25 µg/mL in test [1]; 1.56 µg/mL in test [3]; 0.78 µg/mL with Proteus miravilis GN2425; 0.025 µg/mL in the test on Proteus vulgaris HV19.
As for `CC1(C)S[C@@H]2[C@H](NC(=O)[C@H](NC(=O)c3cnc4cccnc4c3O)c3ccc(N)cc3)C(=O)N2[C@H]1C(=O)O` [Example 2, D-α-(4-hydroxy-1,5-naphthyridine-3-carboxamido)-p-aminobenzylpenicillin sodium salt], the MIC came out at 0.78 µg/mL in the test with Escherichia coli NIHJ; 1.56 µg/mL in test [2]; 12.5 µg/mL in test [1]; 1.56 µg/mL in test [3]; 1.56 µg/mL in the test with Proteus miravilis GN2425; 0.025 µg/mL in the test with Proteus vulgaris HV19.
Turning to `CCOC(=O)Oc1c(C(=O)N[C@@H](C(=O)N[C@@H]2C(=O)N3[C@@H]2SC(C)(C)[C@@H]3C(=O)O)c2ccc(OC)cc2)cnc2cccnc12` [Example 3, D-α-(4-ethoxycarbonyloxy-1,5-naphthyridine-3-carboxamido)-p-methoxybenzylpenicillin], the minimum inhibitory concentration (MIC) was 3.13 µg/mL (≈ 5.02 µM) in the test with Escherichia coli NIHJ; 1.56 µg/mL (≈ 2.5 µM) in test [2]; 12.5 µg/mL (≈ 20 µM) in test [1]; 3.13 µg/mL (≈ 5.02 µM) in test [3]; 6.25 µg/mL (≈ 10 µM) in the test with Proteus miravilis GN2425; 0.1 µg/mL (≈ 0.16 µM) against Proteus vulgaris HV19.
For the molecule `COc1ccc([C@@H](NC(=O)c2cnc3cccnc3c2O)C(=O)N[C@@H]2C(=O)N3[C@@H]2SC(C)(C)[C@@H]3C(=O)O)cc1` [Example 4, D-α-(4-hydroxy-1,5-naphthyridine-3-carboxamido)-p-methoxybenzylpenicillin sodium salt], the MIC against Escherichia coli NIHJ is 3.13 µg/mL; in test [2], 1.56 µg/mL; in test [1], 12.5 µg/mL; in test [3], 3.13 µg/mL; in the test on Proteus miravilis GN2425, 12.5 µg/mL; against Proteus vulgaris HV19, 0.1 µg/mL.
`CN(C)c1ccc([C@@H](NC(=O)c2cnc3cccnc3c2O)C(=O)N[C@@H]2C(=O)N3[C@@H]2SC(C)(C)[C@@H]3C(=O)O)cc1` [Example 5, D-α-(4-hydroxy-1,5-naphthyridine-3-carboxamido)-p-dimethylaminobenzylpenicillin sodium salt]: the minimum inhibitory concentration (MIC) worked out at 3.13 µg/mL in the test on Escherichia coli NIHJ; 1.56 µg/mL in test [2]; 6.25 µg/mL in test [1]; 1.56 µg/mL in test [3]; 6.25 µg/mL in the test on Proteus miravilis GN2425; 0.1 µg/mL against Proteus vulgaris HV19.
In the case of `CC1(C)S[C@@H]2[C@H](NC(=O)[C@H](NC(=O)c3nnc4ccccc4c3O)c3cccc(N)c3)C(=O)N2[C@H]1C(=O)O` [Example 6, D-α-(4-hydroxycinnoline-3-carboxamido)-m-aminobenzylpenicillin], the MIC against Escherichia coli NIHJ came out at 6.25 µg/mL (≈ 11.6 µM); in test [2], 1.56 µg/mL (≈ 2.91 µM); in test [1], 12.5 µg/mL (≈ 23.3 µM); in test [3] it was 6.25 µg/mL (≈ 11.6 µM); against Proteus miravilis GN2425 it was 12.5 µg/mL (≈ 23.3 µM); against Proteus vulgaris HV19, 0.78 µg/mL (≈ 1.45 µM).
`CC(=O)Nc1cccc([C@@H](NC(=O)c2cnc3ccccc3c2OC(=O)C(C)(C)C)C(=O)N[C@@H]2C(=O)N3[C@@H]2SC(C)(C)[C@@H]3C(=O)O)c1` [Example 7, D-α-(4-pivaloyloxyquinoline-3-carboxamido)-m-acetylaminobenzylpenicillin]: the MIC is 3.13 µg/mL (≈ 4.73 µM) in the test on Escherichia coli NIHJ; 0.78 µg/mL (≈ 1.18 µM) in test [2]; 6.25 µg/mL (≈ 9.44 µM) in test [1]; 6.25 µg/mL (≈ 9.44 µM) in test [3]; 6.25 µg/mL (≈ 9.44 µM) in the test on Proteus miravilis GN2425; 0.2 µg/mL (≈ 0.302 µM) against Proteus vulgaris HV19.
As for `CCNc1ccc(C(NC(=O)c2cnc3cccnc3c2O)C(=O)N[C@@H]2C(=O)N3[C@@H]2SC(C)(C)[C@@H]3C(=O)O)cc1` (stereo partly drawn) [Example 10], the MIC in the test with Escherichia coli NIHJ is 0.78 µg/mL (≈ 1.38 µM); in test [2], 1.56 µg/mL (≈ 2.76 µM); in test [1], 12.5 µg/mL (≈ 22.1 µM); in test [3], 1.56 µg/mL (≈ 2.76 µM); with Proteus miravilis GN2425 it was 0.78 µg/mL (≈ 1.38 µM); in the test on Proteus vulgaris HV19 it was 0.05 µg/mL (≈ 0.0886 µM).
On to `CC1(C)S[C@@H]2[C@H](NC(=O)C(NC(=O)c3cnc4cccnc4c3O)c3cccc(I)c3)C(=O)N2[C@H]1C(=O)O` (stereo partly drawn) [Example 11], for which the MIC with Escherichia coli NIHJ was determined as 1.56 µg/mL (≈ 2.41 µM); in test [2] it was 1.56 µg/mL (≈ 2.41 µM); in test [1], 12.5 µg/mL (≈ 19.3 µM); in test [3], 3.13 µg/mL (≈ 4.83 µM); against Proteus miravilis GN2425, 1.56 µg/mL (≈ 2.41 µM); against Proteus vulgaris HV19, 0.05 µg/mL (≈ 0.0772 µM).
On to `CCOC(=O)Oc1c(C(=O)NC(C(=O)N[C@@H]2C(=O)N3[C@@H]2SC(C)(C)[C@@H]3C(=O)O)c2cccc(Cl)c2)cnc2cccnc12` (stereo partly drawn) [Example 12], for which the MIC with Escherichia coli NIHJ was determined as 1.56 µg/mL (≈ 2.48 µM); in test [2] it was 1.56 µg/mL (≈ 2.48 µM); in test [1], 12.5 µg/mL (≈ 19.9 µM); in test [3], 3.13 µg/mL (≈ 4.98 µM); in the test on Proteus miravilis GN2425 it was 1.56 µg/mL (≈ 2.48 µM); with Proteus vulgaris HV19, 0.05 µg/mL (≈ 0.0796 µM).
In the case of `Cc1ccc(C(NC(=O)c2cnc3cccnc3c2O)C(=O)N[C@@H]2C(=O)N3[C@@H]2SC(C)(C)[C@@H]3C(=O)O)cc1` (stereo partly drawn) [Example 13], the MIC with Escherichia coli NIHJ was 0.78 µg/mL (≈ 1.46 µM); in test [2], 1.56 µg/mL (≈ 2.91 µM); in test [1] it was 6.25 µg/mL (≈ 11.7 µM); in test [3], 1.56 µg/mL (≈ 2.91 µM); with Proteus miravilis GN2425, 1.56 µg/mL (≈ 2.91 µM); against Proteus vulgaris HV19, 0.05 µg/mL (≈ 0.0934 µM).
Take `CC1(C)S[C@@H]2[C@H](NC(=O)C(NC(=O)c3nc4ccccc4nc3O)c3cccc(N)c3)C(=O)N2[C@H]1C(=O)O` (stereo partly drawn) [Example 14]: the MIC is 3.13 µg/mL (≈ 5.83 µM) against Escherichia coli NIHJ; 0.78 µg/mL (≈ 1.45 µM) in test [2]; 12.5 µg/mL (≈ 23.3 µM) in test [1]; 0.78 µg/mL (≈ 1.45 µM) in test [3]; 12.5 µg/mL (≈ 23.3 µM) with Proteus miravilis GN2425; 0.78 µg/mL (≈ 1.45 µM) against Proteus vulgaris HV19.
Regarding `CC1(C)S[C@@H]2[C@H](NC(=O)C(NC(=O)c3cnc4ccccc4c3O)c3cccc(N)c3)C(=O)N2[C@H]1C(=O)O` (stereo partly drawn) [Example 15], the MIC with Escherichia coli NIHJ amounted to 3.13 µg/mL (≈ 5.84 µM); in test [2], 0.78 µg/mL (≈ 1.46 µM); in test [1], 6.25 µg/mL (≈ 11.7 µM); in test [3] it was 3.13 µg/mL (≈ 5.84 µM); in the test with Proteus miravilis GN2425 it was 3.13 µg/mL (≈ 5.84 µM); in the test with Proteus vulgaris HV19 it was 0.2 µg/mL (≈ 0.373 µM).
Take `Cc1ccc2c(O)c(C(=O)NC(C(=O)N[C@@H]3C(=O)N4[C@@H]3SC(C)(C)[C@@H]4C(=O)O)c3cccc(N)c3)cnc2c1` (stereo partly drawn) [Example 16]: the MIC is 6.25 µg/mL (≈ 11.4 µM) against Escherichia coli NIHJ; 0.78 µg/mL (≈ 1.42 µM) in test [2]; 3.13 µg/mL (≈ 5.69 µM) in test [3]; 3.13 µg/mL (≈ 5.69 µM) in the test on Proteus miravilis GN2425; 0.39 µg/mL (≈ 0.71 µM) in the test on Proteus vulgaris HV19.
On to `CC1(C)S[C@@H]2[C@H](NC(=O)C(NC(=O)c3cnc4cc(Cl)ccc4c3O)c3ccc(N)cc3)C(=O)N2[C@H]1C(=O)O` (stereo partly drawn) [Example 17], for which the MIC came out at 3.13 µg/mL (≈ 5.49 µM) with Escherichia coli NIHJ; 0.78 µg/mL (≈ 1.37 µM) in test [2]; 6.25 µg/mL (≈ 11 µM) in test [1]; 3.13 µg/mL (≈ 5.49 µM) in test [3]; 3.13 µg/mL (≈ 5.49 µM) against Proteus miravilis GN2425; 0.2 µg/mL (≈ 0.351 µM) in the test with Proteus vulgaris HV19.
For `Cc1ccc2c(O)c(C(=O)NC(C(=O)N[C@@H]3C(=O)N4[C@@H]3SC(C)(C)[C@@H]4C(=O)O)c3cccc(N)c3)cnc2n1` (stereo partly drawn) [Example 18], the MIC against Escherichia coli NIHJ was 1.56 µg/mL (≈ 2.83 µM); in test [2], 1.56 µg/mL (≈ 2.83 µM); in test [1] it was 6.25 µg/mL (≈ 11.4 µM); in test [3], 1.56 µg/mL (≈ 2.83 µM); with Proteus miravilis GN2425 it was 1.56 µg/mL (≈ 2.83 µM); in the test with Proteus vulgaris HV19, 0.025 µg/mL (≈ 0.0454 µM).
In the case of `Cc1ccc2ncc(C(=O)NC(C(=O)N[C@@H]3C(=O)N4[C@@H]3SC(C)(C)[C@@H]4C(=O)O)c3cccc(N)c3)c(O)c2n1` (stereo partly drawn) [Example 19], the MIC in the test with Escherichia coli NIHJ stood at 0.78 µg/mL (≈ 1.42 µM); in test [2], 1.56 µg/mL (≈ 2.83 µM); in test [1], 6.25 µg/mL (≈ 11.4 µM); in test [3], 0.78 µg/mL (≈ 1.42 µM); against Proteus miravilis GN2425, 0.78 µg/mL (≈ 1.42 µM); with Proteus vulgaris HV19 it was 0.025 µg/mL (≈ 0.0454 µM).
